{"source": "ChEMBL document CHEMBL6134883", "about": "“Novel Piperidinylpyridinylcarbonitrile Derivatives as QPCT and QPCTL Inhibitors for Treating Cancer” (ACS Med Chem Lett, 2025)", "assay": "Inhibition of N-terminal His/DDK-tagged recombinant human QPCTL extracted from HEK293T cells using QLLFNKTKSVEFTFC as substrate preincubated for 10 mins followed by substrate addition measured after 40 mins by MALDI-TOF MS analysis", "format": "cell-free", "data": [{"smiles": "Cn1cnnc1C1(F)CCN(c2c(C#N)cc(C(C)(C)O)nc2-c2cnc3nn(C(C)(C)C)c(Cl)c3c2)CC1", "values": [{"measurement": "IC50", "result": 1, "unit": "nM"}]}, {"smiles": "Cc1ccccc1-c1ccc2c(-c3nccc(C#N)c3N3CCC(F)(c4nncn4C)CC3)cnn2n1", "values": [{"measurement": "IC50", "result": 1, "unit": "nM"}]}, {"smiles": "Cn1cnnc1C1(F)CCN(c2c(C#N)ccnc2-c2cnn3nc(-c4cccc(Cl)c4)ccc23)CC1", "values": [{"measurement": "IC50", "result": 1, "unit": "nM"}]}, {"smiles": "Cn1cnnc1C1(F)CCN(c2c(C#N)cc(C(F)(F)F)nc2-c2cnc3nc(C(C)(C)C)oc3c2)CC1", "values": [{"measurement": "IC50", "result": 1, "unit": "nM"}]}, {"smiles": "Cc1ccc(-c2ccc3c(-c4nccc(C#N)c4N4CCC(F)(c5nncn5C)CC4)cnn3n2)c(C)c1", "values": [{"measurement": "IC50", "result": 1, "unit": "nM"}]}, {"smiles": "Cn1cnnc1C1(F)CCN(c2c(C#N)cc(C3CC3(F)F)nc2-c2cnc3nn(C(C)(C)C)cc3c2)CC1", "note": "(stereo unspecified)", "values": [{"measurement": "IC50", "result": 1, "unit": "nM"}]}]}
